Assay results: US20130243700A1, “Proteomic Antisense Molecular Shield and Targeting” (priority 2005, published 2013)

Key:
[1] = test system: blood vessel wall molecules; assay: incubation of damaged blood vessels with biotinylated bioconjugate; format: binding; conditions: biotinylated form
Experimental: To further assess the ECM-binding properties FNPEG-5K, damaged blood vessels were incubated with a biotinylated form of bioconjugate.

vascular wall components = assay: platelet adhesion to damaged blood vessels; format: cell-based
Experimental: (§1) Since the modified FNPEG-5K retained the collagen binding properties of native FN while lacking its intrinsic platelet activating properties, the ability of this reagent to block platelet adherence to collagen was investigated. To test this, type I collagen was adsorbed to tissue culture plates. Native FN or FNPEG-5K were then incubated with the immobilized collagen and washed. Platelet adhesion was then assessed.

[2] = target: plate-immobilized collagen (Homo sapiens, UniProt P02452+P08123); assay: collagen binding study with iodinated FN and FNPEG-5K; conditions: iodinated protein; compared with native FN
Experimental: Purified FN was then reabsorbed to gelatin agarose. Sodium cyanoborohydride and mPEG-aldehyde (MW 5,000) were added to the resin-bound FN. […] Following this reaction and subsequent washing away of the reactants, the protein was eluted from the gelatin agarose matrix. Using this reaction sequence, the collagen binding sites within FN were not modified by the pegylation. […] To test whether the modified forms of FN retained the collagen-binding properties of native FN, binding studies using iodinated FN and FNPEG-5K were undertaken. […] Thus, the key collagen-binding properties of FN were not inhibited by this targeted modification approach.

type I collagen = type I collagen (Homo sapiens, UniProt P02452+P08123); assay: platelet adhesion to type I collagen adsorbed to tissue culture plates after incubation with FN or FNPEG-5K; format: cell-based; conditions: incubated with the protein and washed
Experimental: as §1

platelets = assay: platelet adhesion to FN or FNPEG-5K immobilized on tissue culture plates; format: cell-based, human; conditions: protein immobilized onto tissue culture plates; fluorescently labeled platelets
Experimental: As mentioned previously, FN itself has the ability to mediate adhesion of platelets. To test whether this binding potential was eliminated following mPEG-aldehyde derivatization, FN and FNPEG-5K were immobilized onto tissue culture plates. Fluorescently labeled human […] and adhesion was assessed.

Chain of plate-immobilized collagen (P02452 162-1218 limits assumed): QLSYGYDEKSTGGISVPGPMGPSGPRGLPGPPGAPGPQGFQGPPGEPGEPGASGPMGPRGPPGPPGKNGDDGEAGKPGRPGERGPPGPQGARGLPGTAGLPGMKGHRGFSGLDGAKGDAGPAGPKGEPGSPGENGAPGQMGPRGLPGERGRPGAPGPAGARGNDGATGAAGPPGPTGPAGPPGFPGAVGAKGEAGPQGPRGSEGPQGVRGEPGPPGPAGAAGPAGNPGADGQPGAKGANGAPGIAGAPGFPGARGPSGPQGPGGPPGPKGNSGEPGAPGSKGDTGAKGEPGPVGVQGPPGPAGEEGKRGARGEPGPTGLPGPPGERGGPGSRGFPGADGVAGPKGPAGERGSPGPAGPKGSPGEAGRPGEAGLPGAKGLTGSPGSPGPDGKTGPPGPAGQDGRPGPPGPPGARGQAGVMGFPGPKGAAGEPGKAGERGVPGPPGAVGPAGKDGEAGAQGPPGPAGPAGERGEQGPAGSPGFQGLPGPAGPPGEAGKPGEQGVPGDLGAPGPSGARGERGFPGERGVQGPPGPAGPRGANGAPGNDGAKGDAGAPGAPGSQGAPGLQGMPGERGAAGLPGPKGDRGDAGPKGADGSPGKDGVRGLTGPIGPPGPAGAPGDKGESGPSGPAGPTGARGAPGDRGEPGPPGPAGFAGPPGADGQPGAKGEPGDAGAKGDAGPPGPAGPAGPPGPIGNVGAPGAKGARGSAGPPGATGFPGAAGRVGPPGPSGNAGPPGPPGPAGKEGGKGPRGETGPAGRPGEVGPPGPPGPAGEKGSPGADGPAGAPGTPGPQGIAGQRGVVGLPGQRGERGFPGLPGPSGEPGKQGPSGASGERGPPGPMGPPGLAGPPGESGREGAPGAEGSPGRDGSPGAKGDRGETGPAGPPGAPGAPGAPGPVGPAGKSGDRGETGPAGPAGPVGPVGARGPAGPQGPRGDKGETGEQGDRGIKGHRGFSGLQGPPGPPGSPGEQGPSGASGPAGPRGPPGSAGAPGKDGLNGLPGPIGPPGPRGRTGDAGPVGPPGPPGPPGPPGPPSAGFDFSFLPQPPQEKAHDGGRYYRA
Chain of plate-immobilized collagen (P08123 80-1119 limits assumed): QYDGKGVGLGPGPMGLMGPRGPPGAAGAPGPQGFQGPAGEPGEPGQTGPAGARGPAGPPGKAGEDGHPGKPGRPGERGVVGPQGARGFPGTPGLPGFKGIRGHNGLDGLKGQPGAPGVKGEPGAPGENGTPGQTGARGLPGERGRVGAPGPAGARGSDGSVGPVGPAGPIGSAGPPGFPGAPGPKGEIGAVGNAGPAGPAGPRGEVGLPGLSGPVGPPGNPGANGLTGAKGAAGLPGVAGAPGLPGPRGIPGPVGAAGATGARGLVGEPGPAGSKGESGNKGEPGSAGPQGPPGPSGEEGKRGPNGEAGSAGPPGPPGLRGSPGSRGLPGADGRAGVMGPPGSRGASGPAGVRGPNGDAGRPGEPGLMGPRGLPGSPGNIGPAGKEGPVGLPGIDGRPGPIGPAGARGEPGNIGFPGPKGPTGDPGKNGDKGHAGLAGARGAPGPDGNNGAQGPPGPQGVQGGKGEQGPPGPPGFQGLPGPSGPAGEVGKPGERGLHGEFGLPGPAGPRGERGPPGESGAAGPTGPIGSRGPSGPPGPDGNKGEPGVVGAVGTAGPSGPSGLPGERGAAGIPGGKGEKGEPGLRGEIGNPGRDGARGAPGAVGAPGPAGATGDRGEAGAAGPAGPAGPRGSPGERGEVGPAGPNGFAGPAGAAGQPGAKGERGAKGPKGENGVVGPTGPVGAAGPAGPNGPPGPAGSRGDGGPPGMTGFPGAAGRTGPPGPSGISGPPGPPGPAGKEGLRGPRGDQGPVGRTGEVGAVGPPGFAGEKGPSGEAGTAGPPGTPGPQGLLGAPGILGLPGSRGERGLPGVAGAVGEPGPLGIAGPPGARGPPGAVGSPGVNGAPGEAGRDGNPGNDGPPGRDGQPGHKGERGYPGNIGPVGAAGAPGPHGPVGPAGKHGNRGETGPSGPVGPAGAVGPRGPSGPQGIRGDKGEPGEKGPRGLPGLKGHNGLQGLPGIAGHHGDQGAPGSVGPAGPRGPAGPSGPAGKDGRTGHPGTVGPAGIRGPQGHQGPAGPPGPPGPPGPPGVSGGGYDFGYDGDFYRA
Chain of type I collagen (P02452 162-1218 limits assumed): as the sequence (P02452 162-1218 limits assumed) above
Chain of type I collagen (P08123 80-1119 limits assumed): as the sequence (P08123 80-1119 limits assumed) above

inhibition of platelet binding to type I collagen (type I collagen): potently inhibited
Substance: FNPEG-5K: human plasma fibronectin pegylated on lysine residues with mPEG-aldehyde (MW 5,000) by reductive amination while bound to gelatin agarose
coating of blood vessel wall molecules (ECM binding) [1]: coats blood vessel wall molecules
blocking of platelet adhesion to vascular wall components (vascular wall components): blocks platelet adhesion to vascular wall components
binding to plate-immobilized collagen [2]: bound plate-immobilized collagen in a manner similar to native FN
binding to platelets (platelet adhesion to immobilized protein) (platelets): markedly attenuated
